Assay results reported in Sander's compilation of Henry's law constants.
One block for each molecule: values may come before it.

Experiment: Henry solubility constant Hcp at 298.15 K (mol/(m3 Pa))
[1] = reference: Charles and Destaillats (2005)
[2] = reference: Bakierowska and Trzeszczyński (2003)
[3] = reference: Warner et al. (1980)
[4] = reference: Murphy et al. (1983a)
[5] = reference: Hovorka et al. (2019)
[6] = reference: Copolovici and Niinemets (2005)
[7] = reference: Schuhfried et al. (2015)
[8] = reference: Chang and Criddle (1995)
[9] = reference: Dohányosová et al. (2004)

Henry solubility constant Hcp (reference: Kim et al. (2008)): 2100
Henry solubility constant Hcp (reference: Nguyen (2013)): 1400
SMILES: CNCCCN [N-methyl-1,3-propanediamine]

SMILES: Clc1ccc(-c2ccc(Cl)cc2)cc1 [4,4'-dichlorobiphenyl]
Henry solubility constant Hcp [1]: 0.035

Henry solubility constant Hcp (reference: Amoore and Buttery (1978)): 0.004
SMILES: O=C1CCCCCCCCCCCCCCO1 [oxacyclohexadecan-2-one]

Henry solubility constant Hcp [2]: 0.0028
SMILES: ClC1CCCCC1 [chlorocyclohexane]

Henry solubility constant Hcp (reference: Pollien et al. (2003)): 0.0089
Henry solubility constant Hcp (reference: Roberts and Pollien (1997)): 0.027
SMILES: CCOC(=O)C(C)CC (configuration not stated) [ethyl 2-methylbutanoate]

Henry solubility constant Hcp (reference: Christie and Crisp (1967)): 0.11
SMILES: CCCCNCCCC [dibutylamine]

Henry solubility constant Hcp (reference: Katrib et al. (2003)): 30
SMILES: COC(=O)CCC(=O)OC [butanedioic acid, dimethyl ester]

SMILES: ClC1=C(Cl)C2(Cl)C3C(Cl)C=CC3C1(Cl)C2(Cl)Cl (configuration not stated) [heptachlor]
Henry solubility constant Hcp [3]: 0.0067

SMILES: C=CCN=C=S [allyl isothiocyanate]
Henry solubility constant Hcp (reference: Souchon et al. (2004)): 0.021

SMILES: Clc1ccc(-c2cc(Cl)ccc2Cl)cc1 [2,4',5-trichlorobiphenyl]
Henry solubility constant Hcp [4]: 0.049

SMILES: Cc1ccc(N)cc1C [3,4-dimethylbenzenamine]
Henry solubility constant Hcp (reference: Jayasinghe et al. (1992)): 5.3

SMILES: FC(F)F [trifluoromethane]
Henry solubility constant Hcp (reference: Maaßen (1995)): 0.00012
Henry solubility constant Hcp (reference: Miguel et al. (2000)): 0.00021
Henry solubility constant Hcp (reference: Zheng et al. (1997)): 0.00013

Henry solubility constant Hcp [5]: 0.093
SMILES: CC(=O)C(C)C [3-methyl-2-butanone]

SMILES: Clc1cccc(Cl)c1Cl [1,2,3-trichlorobenzene]
Henry solubility constant Hcp (reference: Brockbank et al. (2013)): 0.0063

Henry solubility constant Hcp (reference: Wu and Chang (2011)): 0.00013
SMILES: OCCC(F)(F)C(F)(F)C(F)(F)C(F)(F)C(F)(F)C(F)(F)C(F)(F)C(F)(F)C(F)(F)C(F)(F)F [1,1,2,2-tetrahydroperfluoro dodecanol]

SMILES: CNC=O [N-methylmethanamide]
Henry solubility constant Hcp (reference: Bernauer and Dohnal (2008)): 1500

Henry solubility constant Hcp (reference: Perlinger et al. (1993)): 0.00086
SMILES: CCCc1ccccc1 [propylbenzene]

Henry solubility constant Hcp [5]: 0.076
SMILES: CCCC(=O)CC [3-hexanone]

SMILES: CCCCCO[N+](=O)[O-] [1-pentyl nitrate]
Henry solubility constant Hcp (reference: Hauff et al. (1998)): 0.0066

Henry solubility constant Hcp [6]: 0.00035
Henry solubility constant Hcp [7]: 0.00037
SMILES: C=C(C)[C@@H]1CC=C(C)CC1 [(S)-1-methyl-4-(1-methylethenyl)-cyclohexene]

Henry solubility constant Hcp (reference: Schuhfried et al. (2011)): 0.0024
SMILES: CCCSSCCC [dipropyl disulfide]

SMILES: FCC(F)(F)F [1,1,1,2-tetrafluoroethane]
Henry solubility constant Hcp [8]: 0.00019
Henry solubility constant Hcp (reference: Maaßen (1995)): 0.00016
Henry solubility constant Hcp (reference: Reichl (1995)): 0.00016
Henry solubility constant Hcp (reference: Zheng et al. (1997)): 0.00016

Henry solubility constant Hcp [2]: 0.0012
SMILES: C/C=C\CCl [(Z)-1-chloro-2-butene]

Henry solubility constant Hcp (reference: Tsonopoulos and Wilson (1983)): 5.4e-05
Henry solubility constant Hcp (reference: Tucker et al. (1981)): 5.4e-05
SMILES: C1CCCCC1 [cyclohexane]

SMILES: O=[N+]([O-])c1ccccc1 [nitrobenzene]
Henry solubility constant Hcp [3]: 0.41

Henry solubility constant Hcp (reference: Hartkopf and Karger (1973)): 0.0015
SMILES: Fc1ccccc1 [fluorobenzene]

Henry solubility constant Hcp (reference: McFall et al. (2020)): 410
SMILES: CCOCc1ccc(O)c(OC)c1 [vanillyl ethyl ether]

SMILES: ClCC(Cl)Cl [1,1,2-trichloroethane]
Henry solubility constant Hcp (reference: Bobadilla et al. (2003)): 0.012

Henry solubility constant Hcp (reference: Reichl (1995)): 3.1e-06
SMILES: FC(F)(F)C(F)(F)Cl [chloropentafluoroethane]

SMILES: C=CC(C)=O [3-buten-2-one]
Henry solubility constant Hcp (reference: Allen et al. (1998)): 0.21
Henry solubility constant Hcp (reference: Iraci et al. (1999)): 0.4
Henry solubility constant Hcp (reference: Ji and Evans (2007)): 0.26

SMILES: CS [methanethiol]
Henry solubility constant Hcp (reference: De Bruyn et al. (1995b)): 0.002
Henry solubility constant Hcp (reference: Hine and Weimar (1965)): 0.0033

SMILES: CCCOC=O [propyl methanoate]
Henry solubility constant Hcp (reference: Kutsuna et al. (2005)): 0.026

Henry solubility constant Hcp [4]: 0.0045
SMILES: Clc1ccc(-c2c(Cl)c(Cl)cc(Cl)c2Cl)c(Cl)c1Cl [2,2',3,3',4,5',6'-heptachlorobiphenyl]

Henry solubility constant Hcp (reference: Ramachandran et al. (1996)): 0.00015
SMILES: CC1CCCCC1 [methylcyclohexane]

Henry solubility constant Hcp (reference: Nguyen (2013)): 4300
SMILES: CN(C)CCOCCO [dimethylaminoethoxyethanol]

SMILES: CCC(CC)O[N+](=O)[O-] [3-pentyl nitrate]
Henry solubility constant Hcp (reference: Hauff et al. (1998)): 0.0038

SMILES: Clc1ccccc1-c1ccccc1Cl [2,2'-dichlorobiphenyl]
Henry solubility constant Hcp [4]: 0.045

Henry solubility constant Hcp (reference: Arp and Schmidt (2004)): 0.014
SMILES: CC(C)(C)OC=O [(1,1-dimethylethyl)-methanoate]

Henry solubility constant Hcp (reference: Goss et al. (2006)): 0.013
Henry solubility constant Hcp (reference: Lei et al. (2004)): 6.1e-05
Henry solubility constant Hcp (reference: Wu and Chang (2011)): 0.0066
SMILES: OCCC(F)(F)C(F)(F)C(F)(F)C(F)(F)F [1H,1H,2H,2H-perfluorohexan-1-ol]

Henry solubility constant Hcp (reference: Allen et al. (1998)): 0.97
Henry solubility constant Hcp (reference: Betterton (1991)): 1.1
SMILES: CC(=O)c1ccccc1 [1-phenylethanone]

Henry solubility constant Hcp (reference: Aprea et al. (2007)): 0.014
SMILES: CCCCCCCCCC(=O)OCC [ethyl decanoate]

Henry solubility constant Hcp (reference: Drouillard et al. (1998)): 0.056
SMILES: ClCC(Cl)CCCCCCC(Cl)CCl (configuration not stated) [1,2,9,10-tetrachlorodecane]

SMILES: CCN(CC)C(=O)SCc1ccc(Cl)cc1 [S-(4-chlorobenzyl) diethylthiocarbamate]
Henry solubility constant Hcp (reference: Kawamoto and Urano (1989)): 4.9

SMILES: O=C(O)C(Cl)(Cl)Cl [trichloroethanoic acid]
Henry solubility constant Hcp (reference: Bowden et al. (1998b)): 730

Henry solubility constant Hcp (reference: Aprea et al. (2007)): 0.014
Henry solubility constant Hcp (reference: Landy et al. (1995)): 0.0094
Henry solubility constant Hcp (reference: Landy et al. (1996)): 0.016
SMILES: CCCCCC(=O)OCC [ethyl hexanoate]

Henry solubility constant Hcp (reference: Nguyen (2013)): 1800
SMILES: CN1CCNCC1 [N-methylpiperazine]

Henry solubility constant Hcp (reference: Wieland et al. (2015)): 0.32
SMILES: C/C=C/C(=O)C1=C(C)C=CCC1(C)C [(E)-β-damascenone]

Henry solubility constant Hcp (reference: Nguyen (2013)): 1000
SMILES: NCCCCCCN [1,6-hexanediamine]

Henry solubility constant Hcp [9]: 2.7e-05
SMILES: C[C@@H]1CCCC[C@@H]1C [cis-1,2-dimethylcyclohexane]

SMILES: CC(C)(Cl)Cl [2,2-dichloropropane]
Henry solubility constant Hcp [2]: 0.00081

Henry solubility constant Hcp (reference: Heidman et al. (1985)): 3.1e-06
Henry solubility constant Hcp (reference: Jönsson et al. (1982)): 2.9e-06
Henry solubility constant Hcp (reference: Park et al. (1997)): 3.3e-06
SMILES: CCCCCCCC [octane]

SMILES: FC(F)(F)C(Cl)Cl [2,2-dichloro-1,1,1-trifluoroethane]
Henry solubility constant Hcp [8]: 0.00032
Henry solubility constant Hcp (reference: Kutsuna (2013)): 0.00023

Henry solubility constant Hcp (reference: Haimi et al. (2006)): 0.00077
SMILES: CCOC(C)(C)CC(C)(C)C [2-ethoxy-2,4,4-trimethylpentane]

Henry solubility constant Hcp (reference: Buttery et al. (1971)): 0.13
SMILES: CCCCC/C=C/C=O [(E)-2-octenal]

Henry solubility constant Hcp [9]: 1.6e-05
SMILES: C[C@@H]1CCCC[C@H]1C (relative stereo) [trans-1,2-dimethylcyclohexane]

Henry solubility constant Hcp (reference: Coquelet and Richon (2005)): 0.0015
Henry solubility constant Hcp (reference: Haimi et al. (2006)): 0.0015
SMILES: CCCCS [1-butanethiol]

Henry solubility constant Hcp (reference: Ondo and Dohnal (2007)): 1.4
SMILES: COCCOC [1,2-dimethoxyethane]

Henry solubility constant Hcp [6]: 0.00035
Henry solubility constant Hcp [7]: 0.00038
SMILES: C=C(C)[C@H]1CC=C(C)CC1 [(R)-1-methyl-4-(1-methylethenyl)-cyclohexene]

Henry solubility constant Hcp (reference: Copolovici and Niinemets (2007)): 0.38
Henry solubility constant Hcp (reference: Leng et al. (2013)): 0.2
SMILES: C=CC(C)(O)CCC=C(C)C (configuration not stated) [3,7-dimethyl-1,6-octadien-3-ol]

SMILES: Brc1ccc(Br)cc1 [1,4-dibromobenzene]
Henry solubility constant Hcp (reference: Kuramochi et al. (2004)): 0.0094

SMILES: CCCO [1-propanol]
Henry solubility constant Hcp (reference: Burnett (1963)): 1.6
Henry solubility constant Hcp (reference: Butler et al. (1935)): 1.4
Henry solubility constant Hcp (reference: Gupta et al. (2000)): 1.2
Henry solubility constant Hcp (reference: Richon et al. (1985)): 1.8
Henry solubility constant Hcp (reference: Snider and Dawson (1985)): 1.3
Henry solubility constant Hcp (reference: Straver and de Loos (2005)): 1.5
Henry solubility constant Hcp (reference: Vitenberg and Dobryakov (2008)): 1.5

SMILES: ClC1=C(Cl)[C@]2(Cl)[C@H]3[C@H]([C@@H]4C=C[C@H]3C4)[C@@]1(Cl)C2(Cl)Cl [aldrin]
Henry solubility constant Hcp [3]: 0.02

SMILES: Brc1ccc(Oc2ccc(Br)cc2)cc1 [4,4'-dibromodiphenyl ether]
Henry solubility constant Hcp [1]: 0.073
